These results are taken from patent US8466145B2, “Dipeptidyl peptidase IV inhibitors” (Orchid Chemicals & Pharmaceuticals Limited, priority 2009, dated 2013).

Data set [1] deals with T1, DPP-IV (Homo sapiens, UniProt P27487).
T1 construct: from tissue; host or cells: human plasma (per the earlier reading of the assay)
Kind of data set: DPP-IV inhibition, compounds screened by using human plasma. To be noted: screened by using human plasma (starred examples); 300 nM compound concentration. The format is biochemical.

T1 sequence (P27487 39-766 limits assumed): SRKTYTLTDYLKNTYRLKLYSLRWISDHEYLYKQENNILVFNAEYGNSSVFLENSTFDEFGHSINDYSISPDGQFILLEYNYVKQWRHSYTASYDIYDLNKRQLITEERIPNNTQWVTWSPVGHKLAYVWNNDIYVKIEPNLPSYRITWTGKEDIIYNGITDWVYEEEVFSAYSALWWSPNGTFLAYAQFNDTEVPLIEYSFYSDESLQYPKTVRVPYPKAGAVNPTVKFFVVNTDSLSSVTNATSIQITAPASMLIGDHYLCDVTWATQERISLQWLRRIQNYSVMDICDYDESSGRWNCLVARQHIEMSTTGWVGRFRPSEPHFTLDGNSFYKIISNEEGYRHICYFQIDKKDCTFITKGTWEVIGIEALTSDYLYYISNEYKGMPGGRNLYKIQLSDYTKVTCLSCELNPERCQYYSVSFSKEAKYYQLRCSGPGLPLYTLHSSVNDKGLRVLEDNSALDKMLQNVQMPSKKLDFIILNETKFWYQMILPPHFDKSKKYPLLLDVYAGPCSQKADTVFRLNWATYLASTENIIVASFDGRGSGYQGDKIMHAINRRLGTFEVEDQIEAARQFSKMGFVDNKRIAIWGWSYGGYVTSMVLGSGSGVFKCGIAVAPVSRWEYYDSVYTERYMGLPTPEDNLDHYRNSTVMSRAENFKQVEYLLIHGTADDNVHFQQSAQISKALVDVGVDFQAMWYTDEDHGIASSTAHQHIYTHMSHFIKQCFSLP

`CC(C)c1noc([C@H]2CC[C@@](C)(NCC(=O)N3C[C@@H](F)C[C@H]3C#N)C2(C)C)n1` [Example 52, (2S,4S)-4-Fluoro-1-(2-((1R,3S)-3-(3-isopropyl-1,2,4-oxadiazol-5-yl)-1,2,2-trimethylcyclopentylamino)acetyl)pyrrolidine-2-carbonitrile]: the melting point (in general, the temperature, or range, at which the solid turns liquid) is 91 to 94 °C. For the same compound, in data set [1], testing at 0.3 µM gave an inhibition of 29.2%.
